# Measured values from EP2805705B1, “Packaging with one or more administration units comprising a sodium salt of (R)-3-[6-amino-pyridin-3-yl]-2-(1-cyclohexyl-1 H-imidazol-4-yl)-propionic acid” (IP Gesellschaft für Management mbH, priority 2013, dated 2014).
# Assays:
# Type in all cases: physicochemical
# [1] = Dynamic vapor sorption (DVS), DVS-1 instrument, two cycles at 25 °C; settings: for weight increase in the sorption step: 25 °C
# [2] = Determination of solubility in a mixture of acetone and water (4:1, by volume); settings: acetone and water (4:1, by volume)
# Description: Determination of solubility: For the determination of the solubility in a mixture of acetone and water (4:1, by volume), samples of 0.5 mg to 50 mg of the test substances were suspended in a defined amount of the solvent (800 mg to 1200 mg) in screw cap vials with a magnetic stirring bar, which were placed in a temperature-controlled multiple stirring device equipped for transmission measurement (Avantium Crystal 16). With stirring at 700 rpm, the vials were cooled from room temperature to 0 °C and then heated to 60 °C with a heating rate of 3 °C/h, kept at 60 °C for 2 h and cooled again to 0 °C with a cooling rate of 3 °C/h. By means of transmission measurement it was determined whether the sample was dissolved (100 % transmission), or crystals were present. For polymorph 1 ({drug5b}), polymorph 2 ({drug5c}), hydrate 1 ({drug5e}) and hydrate 2 ({drug5f}) of compound (V) the following solubilities in a mixture of acetone and water (4:1, by volume) were determined.
# [3] = Maturation experiments (slurry conversion), relative stability; settings: among polymorphs 1, 2 and hydrate 1, suspensions kept five days at 20 °C, then dried at 40°C and <100 mbar
# Description: Maturation experiments: By maturation experiments (slurry conversion) at 20 °C the relative stability of polymorphs 1 ({drug5b}) and 2 ({drug5c}) and hydrate 1 ({drug5e}) was investigated. A polymorph mixture of 81 mg (Mixture of Polymorph 1 ({drug5b}) and Polymorph 2 ({drug5c})), 83 mg of Polymorph 1 ({drug5b}) and 60 mg of hydrate 1 ({drug5e}) was prepared. The mixture was subjected to XRPD analysis to confirm the presence of all three polymorphs and then distributed into five capillaries. These samples were kept in suspension at 20°C for five days. After X-ray powder diffraction measurement of the suspensions these were dried over night at 40°C and <100mbar and again subjected to X-ray diffraction. Maturation experiments (a) to (e) were performed under the specified conditions, starting with the polymorph mixture described above. (a) The polymorph mixture was suspended in water. After stirring the suspension for five days at 20 °C, the suspension was analyzed via XRPD and a mixture of polymorph 1 ({drug5b}) and hydrate 1 ({drug5e}) was proven. […] (b) The polymorph mixture was suspended in water/methanol 1:1 (vol.: vol.). […] (c) The polymorph mixture was suspended in 2-propanol. […] (d) The polymorph mixture was suspended in acetone. […] (e) The polymorph mixture was suspended in ethylacetate. […]
# [4] = Solubility in water (statement, no method given); settings: result in words
# [5] = Physical stability on storage for 14 days (XRPD, thermogravimetry); settings: stored 14 days under conditions (A), (B), (C) and (D)
# Description: Example 3: Physical stability: Representative samples of the crystalline salt of (R)-3-(6-amino-pyridin-3-yl)-2-(1-cyclohexyl-1 H-imidazol-4-yl)-propionic acid ethyl ester with naphthalene-1,5-disulfonic acid as in Example 1 are produced and are stored for 14 days under the conditions (A), (B), (C) and (D): (A) 50°C; (B) 50°C and 80% relative humidity; (C) 80°C; (D) 80°C and 80% relative humidity.
# [6] = Chiral stability on storage for 14 days (chiral HPLC)
# Description: Example 4: Chiral stability: Representative samples of the crystalline salt of (R)-3-(6-amino-pyridin-3-yl)-2-(1-cyclohexyl-1 H-imidazol-4-yl)-propionic acid ethyl ester with naphthalene-1,5disulfonic acid were prepared as described in example 1 amd stored for 14 days under described conditions (A), (B), (C) and (D): Results:
# The enantiomeric purity of the sample measured at the beginning of measurement was 99.0%. Under the storage conditions 50°C (A) and 50°C and 80% relative humidity (B) a small increase of 0.2% of the (S)-enantiomers was observed. Under storage conditions 80°C (C), no change can be observed. Under the storage condition 80°C and 80% relative humidity (D) an increase of 2.7% of (S)-enantiomers was are observed. The measurements were made as described in Example 1 by chromatography on a chiral phase, Chiral HPLC (Chiralcel OD-H/84 (250x4.6 mm), heptane: isopropanol: acetonitrile 15:1: 0.5 +0.1% diethylamine (DEA), 30°C, 1 ml / min): Rt = 27.01 min.
smiles,measurement,setting,value
"CNc1nccc(-c2cc3cc(C(=O)N[C@@H](CN(c4ccccc4)c4ncccn4)C(N)=O)ccc3[nH]2)n1 [Polymorph 1, 2-(2-methylamino-pyrimidin-4-yl)-1 H-indole-5-carboxylic acid [(S)-1-carbamoyl-2-(phenyl-pyrimidin-2-yl-amino)-ethyl]-amide]",weight increase in the sorption step,"[1]; Relative humidity 40 %, first cycle",0.5 % / 0.5%
same,weight increase in the sorption step,"[1]; Relative humidity 40 %, second cycle",0.5 % / 0.5%
same,weight increase in the sorption step,"[1]; Relative humidity 60 %, first cycle",0.6 % / 0.6%
same,weight increase in the sorption step,"[1]; Relative humidity 60 %, second cycle",0.6 % / 0.6%
same,weight increase in the sorption step,"[1]; Relative humidity 80 %, first cycle",0.9 % / 0.9%
same,weight increase in the sorption step,"[1]; Relative humidity 80 %, second cycle",0.9 % / 0.9%
same,weight increase in the sorption step,"[1]; Relative humidity 95 %, first cycle",1.3%
same,weight increase in the sorption step,"[1]; Relative humidity 95 %, second cycle",1.4%
same,water uptake (hygroscopicity),[1]; at a high relative humidity of 80 %,about 0.9%
same,Solubility [g in 100 g of solvent],[2]; Temperature 36.9 °C,0.43 g in 100 g of solvent
same,Solubility [g in 100 g of solvent],[2]; Temperature 44.7 °C,0.50 g in 100 g of solvent
same,Solubility [g in 100 g of solvent],[2]; Temperature 60.0 °C,0.85 g in 100 g of solvent
same,relative thermodynamic stability,[3],thermodynamically most stable polymorph
same,relative thermodynamic stability,[3]; listed as polymorph 1,thermodynamically most stable
same,solubility in water,[4],low solubility in water
"CCOC(=O)[C@H](Cc1ccc(N)nc1)c1cn(C2CCCCC2)cn1.O=S(=O)(O)c1cccc2c(S(=O)(=O)O)cccc12 [naphthalene-1,5-disulfonic acid salt of (R)-3-(6-amino-pyridin-3-yl)-2-(1-cyclohexyl-1 H-imidazol-4-yl)-propionic acid-ethylester]",XRPD measurements at the beginning and after 14 days,[5],close to each other
same,enantiomeric purity,[6]; at the beginning of measurement,99.0%
same,increase of (S)-enantiomers,"[6]; storage condition 80°C and 80% relative humidity (D), 14 days",2.7%
same,enantiomeric purity,"[6]; storage condition (A) 50°C, 14 days",98.8%
same,enantiomeric purity,"[6]; storage condition (B) 50°C and 80% relative humidity, 14 days",98.8%
same,enantiomeric purity,"[6]; storage condition (C) 80°C, 14 days",99.0%
same,enantiomeric purity,"[6]; storage condition (D) 80°C and 80% relative humidity, 14 days",96.3%
same,increase of the (S)-enantiomers,"[6]; storage conditions 50°C (A) and 50°C and 80% relative humidity (B), 14 days",0.2%
same,change of enantiomeric purity,"[6]; storage conditions 80°C (C), 14 days",no change
